Assay results taken from patent US9944613B2, “Fumagillol spirocyclic compounds and fused bicyclic compounds and methods of making and using same” (Zafgen, Inc., priority 2015, dated 2018).
Structures can show the parent of a compound that is named as a salt.

Tests used:
[1] = tested on: pregnant Sprague Dawley rats (embryo/fetal development); assay: Rat embryofetal development study; format: in vivo; conditions: 6 mpk subcutaneously once every three days, Gestation Days 6-18, pregnant rats
Description: Study Summary Rat Embryofetal:
The objective of this study design was to evaluate the potential effects of disclosed compounds on embryo/fetal development when given subcutaneously to pregnant rats once every three days during the critical period of organogenesis (Gestation Days 6-18). Female, Sprague Dawley rats, approximately 10 weeks of age, time bred, were ordered from a certified vendor and housed individually housed in stainless steel cages suspended over flush pans, on a 12-hour light-dark cycle (0700-1900) at 20-26° C. and 30-70% humidity. Rats were fed a standard rodent chow and provided water ad libitum. Rats were received and housed in the facility for a period of approximately 1 to 2 days.
Compounds were formulated using 100% DMSO mixed in Sterile Water for Injection, resulting in 2% DMSO solution in water. If necessary, due to limited solubility of a test article, a higher percentage of DMSO solution in water was used. Groups of 8 mated and presumed pregnant female rats were given subcutaneous doses of vehicle or test article, once every three days, beginning on Gestation Day 6 and ending on Gestation Day 18 (Days 6, 9, 12, 15, and 18), maintained two more days, and then euthanized and necropsied on Gestation Day 20. Body weights was recorded for all animals on Gestation Days 5 (purpose of randomization), 6, 9, 12, 15, 18, and 20 (scheduled euthanasia). Food consumption by weight was recorded on Gestation Days 6, 9, 12, 15, 18, and 20 (scheduled termination).
At necropsy, the dams were examined visually for external abnormalities including palpable masses. The abdominal, thoracic, and cranial cavities and their contents were examined for abnormalities and findings will be recorded. The reproductive tract were examined to record the number of ovarian corpora lutea, the number and location of uterine implantation sites noting the position of the cervix, and the number of early resorptions, late resorptions, live fetuses, and dead fetuses. For dead fetuses and late resorptions, crown-to-rump length and weight were recorded, if possible, and the fetus was discarded. For viable fetuses, weight, sex, and grossly visible external abnormalities were recorded.

recombinant human MetAP2 = molecular target: T1, recombinant human MetAP2 (Homo sapiens, UniProt P50579); assay: Inhibition of recombinant human MetAP2 activity (MAS peptide / amino acid oxidase / Amplex assay); format: biochemical; conditions: Flag tagged human recombinant MetAP2, 25 minutes at 25° C.; read-out: MetAP2 IC50
T1 construct: Flag; made in house
Protocol: Compounds are tested for their capacity to inhibit recombinant human MetAP2 activity using the following assay.
Flag tagged Human recombinant MetAP2 expressed and isolated for use as the enzyme source. 10 mM stock solutions of compounds were prepared in 100% DMSO and further diluted in 100% DMSO required concentration to 1 mM stocks. The stock compound solutions and DMSO vehicle controls were diluted to target final compound concentrations using assay buffer to a final concentration of 50 mM HEPES containing 100 mM NaCl, pH adjusted to 7.5. The MAS peptide was formulated to a 7.5 mM stock in distilled water and prior to use further diluted 1:4. […] 40 μl of enzyme was mixed with 100 μl of MnCl2 then further diluted in assay buffer to a final concentration of 16 μg/ml. To test for compound effect on MetAP2 enzyme activity, 5 μl of test compound, 10 μl of MAS substrate/amino acid oxidase mixture, 10 μl of MetAP2 was added to test wells in a 384 well black plate with blank wells containing no enzyme, replaced with 10 μl of assay buffer. All compounds were tested in duplicate on two occasions on the same day.
The plate was sealed with a TopSeal A cover and mixed briefly on an orbital mixer at 900 rpm. The plate was incubated for a further 25 minutes at 25° C. A 5× stock of Amplex buffer was prepared (0.25M sodium phosphate, pH 7.4) and stored at 4° C. When preparing for use the stock was diluted with distilled water. […] Horse radish peroxidase was diluted in […] of Amplex buffer, 100 μl of this was combined with 50 μl of Amplex Ultrared in […] of 1× Amplex buffer to generate sufficient detection reagent for a 384 well plate. 25 μl detection reagent was added to each well of the test plate, which was re-sealed and mixed briefly on an orbital shaker. The plate was transferred to an Envision Multi-label reader and RFU measured corresponding to excitation 531 nm and emission 595 nm. At the end of the MetAP2 incubation 25 μl Amplex/HRP mixture per well was added and the plate read plate on a plate reader.

[2] = tested on: rat DIO model (Sprague Dawley rats on high fat diet); assay: 11 day rat DIO model, weight loss vs. vehicle; format: in vivo; conditions: for Rat @ 1.0 mpk sc (%): 1.0 mpk sc once a day for 11 days; for inhibition in vivo at 0.3 mg/kg: Rattus norvegicus, 264 h, 0.3 mpk sc once a day for 11 days
Description: The objective of this study design is to investigate the efficacy of disclosed compounds in an 11 day rat DIO model used to screen compounds for pharmacologic efficacy on endpoints related to obesity and metabolism. Effects on body weight, food intake, hematology and blood chemistries were the primary readouts of this study design. Male Sprague Dawley rats, approximately 8 weeks of age, were ordered from a certified vendor and housed on irradiated corncob bedding in micro-isolator cages, on a 12-hour light-dark cycle (0700-1900) at 68-74° F. and 30-70% humidity. Rats were fed Research Diets D12451 (45% High Fat) and provided water ad libitum. Rats were received and housed in the facility for at least two or three weeks prior to start of test article administration. On Day −4 or −3, rats were randomized into study groups based on body weight and body weights were continued to be recorded daily for the duration of the study. Daily food intake was assessed starting on Study Day −2 by weighing the hopper including the food to avoid loss of food in transfer.
(§1) Compounds were formulated into a 100% DMSO stock (at 9 mg/mL) prior to the start, and further diluted into the target working concentration using the vehicle of 10% DMSO in water. Prior to test article administration, starting on Day −3 a dosing acclimation occured with all animals receiving a subcutaneous injection of vehicle (10% DMSO) only for 3 days. Starting on Day 1, test compounds or vehicle were administered based on individual body weight, subcutaneously, once a day for 11 days. All animals were sacrificed on Day 11, approximately 2 hours following the final dosing on Day 11. After sacrifice, whole blood was collected and analyzed for hematology and blood chemistry parameters.
(§2) Compounds were tested for weight loss vs. vehicle at 0.3 and 1.0 mpk sc (mg per kg animal weight delivered subcutaneously), and the results are shown in Table 2 below.

[3] = tested on: Diet Induced Obese (DIO) C57BL/6 mice; assay: 10 day DIO mouse model, weight loss vs. vehicle; format: in vivo; conditions: 240 h, 0.3 mpk sc once a day for 10 days
Description: The objective of this study design was to investigate the efficacy of disclosed compounds in a 10 day DIO mouse model. Effects on body weight, food intake, hematology and blood chemistry were the primary readouts of this study design. Male, Diet Induced Obese (DIO) C57BL/6 mice, 19-21 weeks of age (13-15 weeks on high fat diet) were ordered from a certified vendor and upon receipt were housed on irradiated corncob bedding in micro-isolator cages on a 12-hour light-dark cycle (0700-1900) at 68-74° F. and 30-70% humidity. Mice were fed Research Diets D12492 (60% Kcal fat, 20% Kcal carbohydrate and 20% protein) and provided water ad libitum. DIO mice were received and housed in the facility for approximately two weeks prior to the start of test article administration. On Day −4 or −3, mice were randomized into study groups based on body weight and body weights were continued to be recorded daily for the duration of the study. Daily food intake was assessed starting on Study Day −2 by weighing of the food with hopper together to avoid loss of food in transfer.
as §1, with “for 10” for “for 11”, “All mice” for “All animals”, “11, 24” for “11, approximately 2”, “Day 10.” for “Day 11.”
as §2

[4] = tested on: human fibrosarcoma cell line HT-1080; assay: HT-1080 cell growth inhibition (CellTiter-Glo, 72 hours); format: cell-based; conditions: HT-1080 cells, 72 hours incubation
Protocol: The human fibrosarcoma cell line HT-1080 were grown to almost complete confluence in T75 tissue culture flasks in preparation for the experiment. The cells were trypsinised and re-suspended in complete medium using DMEM plus 9% FBS including penicillin/streptomycin supplements. 500 cells in a total volume of 25 μl were seeded into black walled 384 well plates and returned to a CO2 incubator over-night. Compounds and standards were prepared at 333.3× actual test concentration in neat DMSO. 10 point dose response curves of test compounds were generated by 1:3 serial dilutions, 2 μl of DMSO stock was transferred to 109 μl complete medium. This was further diluted 1:6 in complete medium, with 5 μl of the resulting solution added to the incubated 384 well plate. […] For experimental blanks at the start of the experiment, CellTiter-Glo was added to a satellite plate of cells (identical to the experimental plate), when adding compounds on Day 1. The average of these wells is used as the blanks in the calculation template. […] Luminescence per well was determined using an EnVision 2104 Multilabel Reader (PerkinElmer) or other suitable reader. The compound blank value recorded on Day 1 is subtracted from all other data. […] The EC50 values are determined from a sigmoidal 4 parameter curve fit using XLfit in conjunction with Activity Base (IDBS; Guildford, Surrey, UK). […]

T1 sequence (P50579 whole entry): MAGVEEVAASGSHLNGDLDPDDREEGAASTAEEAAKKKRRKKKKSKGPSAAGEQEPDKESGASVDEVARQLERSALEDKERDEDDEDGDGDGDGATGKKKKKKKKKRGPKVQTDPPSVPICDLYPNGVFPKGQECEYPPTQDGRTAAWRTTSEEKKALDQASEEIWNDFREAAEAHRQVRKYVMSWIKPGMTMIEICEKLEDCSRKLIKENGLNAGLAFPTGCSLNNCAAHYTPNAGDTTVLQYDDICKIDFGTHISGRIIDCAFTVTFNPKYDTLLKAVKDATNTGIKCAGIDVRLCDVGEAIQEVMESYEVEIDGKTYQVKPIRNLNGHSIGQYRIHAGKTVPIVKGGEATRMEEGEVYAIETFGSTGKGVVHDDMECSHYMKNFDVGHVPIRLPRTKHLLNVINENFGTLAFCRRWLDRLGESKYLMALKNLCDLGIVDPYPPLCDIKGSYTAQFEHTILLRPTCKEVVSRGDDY

| Compound | Rat Embryofetal @6 mpk [1] | IC50 (recombinant human MetAP2) [nM] | Rat @ 1.0 mpk sc (%) [2] [%] | inhibition in vivo at 0.3 mg/kg [2] [%] | inhibition in vivo at 0.3 mg/kg [3] [%] | EC50 [4] [nM] |
| --- | --- | --- | --- | --- | --- | --- |
| CO[C@@H]1[C@H](OC(=O)N2CC3(COC3)C2)CC[C@]2(CO2)[C@H]1[C@@]1(C)O[C@@H]1CC=C(C)C [Example 2, (3R,4S,5S,6R)-5-methoxy-4-((2R,3R)-2-methyl-3-(3-methylbut-2-enyl)oxiran-2-yl)-1-oxaspiro[2.5]octan-6-yl 2-oxa-6-azaspiro[3.3]heptane-6-carboxylate] | Positive | < 50 | 10.2 | 8 | 11.1 |  |
| CO[C@@H]1[C@H](OC(=O)N2CC3(CCN(CC(F)F)CC3)C2)CC[C@]2(CO2)[C@H]1[C@@]1(C)O[C@@H]1CC=C(C)C [Example 9, (3R,4S,5S,6R)-5-methoxy-4-((2R,3R)-2-methyl-3-(3-methylbut-2-enyl)oxiran-2-yl)-1-oxaspiro[2.5]octan-6-yl 7-(2,2-difluoroethyl)-2,7-diazaspiro[3.5]nonane-2-carboxylate formate] | Positive | 50 to 500 |  |  | 21.5 |  |
| CO[C@@H]1[C@H](OC(=O)N2CCC3(COC3)C2)CC[C@]2(CO2)[C@H]1[C@@]1(C)O[C@@H]1CC=C(C)C [Example 4, (3R,4S,5S,6R)-5-methoxy-4-((2R,3R)-2-methyl-3-(3-methylbut-2-en-1-yl)oxiran-2-yl)-1-oxaspiro[2.5]octan-6-yl 2-oxa-6-azaspiro[3.4]octane-6-carboxylate] | Negative | < 50 |  |  | 15.4 | < 0.5 |
| CO[C@@H]1[C@H](OC(=O)N2CCC3(CCOCC3)C2)CC[C@]2(CO2)[C@H]1[C@@]1(C)O[C@@H]1CC=C(C)C [Example 27, (3R,4S,5S,6R)-5-methoxy-4-((2R,3R)-2-methyl-3-(3-methylbut-2-enyl)oxiran-2-yl)-1-oxaspiro[2.5]octan-6-yl 8-oxa-2-azaspiro[4.5]decane-2-carboxylate] | Positive | 50 to 500 |  |  | 16.3 |  |
| CO[C@@H]1[C@H](OC(=O)/C=C/c2ccc(OCCN(C)C)cc2)CC[C@]2(CO2)[C@H]1[C@@]1(C)O[C@@H]1CC=C(C)C [compound A, [(3R,6R,7S,8S)-7-methoxy-8-[(2R,3R)-2-methyl-3-(3-methylbut-2-enyl)oxiran-2-yl]-2-oxaspiro[2.5]octan-6-yl] (E)-3-[4-[2-(dimethylamino)ethoxy]phenyl]prop-2-enoate, reference compound] | Positive |  |  | 20 | 18 | 0.5 to 1 |
| CO[C@@H]1[C@H](OC(=O)N2CC3C(C2)C3(F)F)CC[C@]2(CO2)[C@H]1[C@@]1(C)O[C@@H]1CC=C(C)C (stereo partly drawn) [Example 22, (3R,4S,5S,6R)-5-methoxy-4-((2R,3R)-2-methyl-3-(3-methylbut-2-enyl)oxiran-2-yl)-1-oxaspiro[2.5]octan-6-yl 6,6-difluoro-3-azabicyclo[3.1.0]hexane-3-carboxylate] | Negative | < 50 |  |  | 15.5 |  |
| CO[C@@H]1[C@H](OC(=O)N2CCC3(CCOCC3)CC2)CC[C@]2(CO2)[C@H]1[C@@]1(C)O[C@@H]1CC=C(C)C [Example 1, (3R,4S,5S,6R)-5-methoxy-4-((2R,3R)-2-methyl-3-(3-methylbut-2-enyl)oxiran-2-yl)-1-oxaspiro[2.5]octan-6-yl 3-oxa-9-azaspiro[5.5]undecane-9-carboxylate] |  | 50 to 500 | 16.3 | 10.3 | 17 |  |
